Test results from USRE47193E1, “Selectively substituted quinoline compounds” (EISAI R&D MANAGEMENT CO., LTD., priority 2013, dated 2019).

Assays:
TLR9 = target: T1, TLR9 (Homo sapiens, UniProt Q9NR96); experiment: HEK-293 human TLR9 NF-kappaB luciferase reporter assay (CpG-ODN); type: cell-based; design: stably and individually express human TLR4, TLR7 or TLR9 full-length ORF cDNAs; expressed in transfected cells; host or cells: HEK-293 (ATCC) with ELAM-1 NF-kappaB luciferase reporter; conditions: ligand CpG-ODN, analyte NFkB-luciferase
T1 sequence (Q9NR96 26-1032): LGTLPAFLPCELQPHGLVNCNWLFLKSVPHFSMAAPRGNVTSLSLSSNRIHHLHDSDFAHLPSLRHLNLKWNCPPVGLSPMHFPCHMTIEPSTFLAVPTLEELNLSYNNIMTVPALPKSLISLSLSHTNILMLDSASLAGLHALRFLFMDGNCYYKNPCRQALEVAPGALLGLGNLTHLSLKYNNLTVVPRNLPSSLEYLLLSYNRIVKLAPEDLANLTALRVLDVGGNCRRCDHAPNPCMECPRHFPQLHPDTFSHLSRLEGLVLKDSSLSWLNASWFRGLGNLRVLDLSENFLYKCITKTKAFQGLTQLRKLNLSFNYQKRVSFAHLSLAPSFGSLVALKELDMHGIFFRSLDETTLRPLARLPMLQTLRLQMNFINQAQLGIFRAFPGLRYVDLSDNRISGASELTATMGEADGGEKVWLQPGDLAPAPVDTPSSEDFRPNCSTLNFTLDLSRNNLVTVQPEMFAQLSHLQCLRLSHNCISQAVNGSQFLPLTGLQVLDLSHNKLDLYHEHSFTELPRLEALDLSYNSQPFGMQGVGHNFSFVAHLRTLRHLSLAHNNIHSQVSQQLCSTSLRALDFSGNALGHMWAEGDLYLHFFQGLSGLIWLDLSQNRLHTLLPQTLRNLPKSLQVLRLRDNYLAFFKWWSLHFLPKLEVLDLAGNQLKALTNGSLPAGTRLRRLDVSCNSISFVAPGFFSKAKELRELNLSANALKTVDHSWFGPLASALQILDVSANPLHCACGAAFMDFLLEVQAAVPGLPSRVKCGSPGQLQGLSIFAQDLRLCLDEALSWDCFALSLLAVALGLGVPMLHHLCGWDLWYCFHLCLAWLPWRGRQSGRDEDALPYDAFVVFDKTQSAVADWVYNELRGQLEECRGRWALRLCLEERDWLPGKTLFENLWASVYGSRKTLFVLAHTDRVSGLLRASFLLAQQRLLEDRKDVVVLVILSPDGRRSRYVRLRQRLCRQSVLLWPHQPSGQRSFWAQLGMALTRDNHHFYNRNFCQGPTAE
Protocol: (§1) To identify potent and selective TLR7/8 compounds, analogs were initially screened across a cell-based panel of human TLR4, TLR7, and TLR9 reporter lines (see Pharmacology Materials and Methods for more details). […] Certain compounds were advanced into the short-term in vivo (STIV) assay to determine dose-dependent activity and duration-of-action against mouse TLR7 (see Pharmacology Materials and Methods for more details). Select compounds were then evaluated for impact in one or more of the following mouse lupus disease models: BXSB-Yaa, NZBx-NZW, and Pristane DBA/1.
(§2) HEK-293 cells (ATCC) were engineered to stably express a NF-kappaB transcription factor inducible E-selectin (ELAM-1) luciferase reporter derived from the plasmid pGL3 (Promega) containing base pairs −2241 bp to −254 bp from the promoter of the human E-selectin gene (Accession No. NM_000450). These cells were then subsequently engineered to stably and individually express human TLR4, TLR7 or TLR9 full-length ORF cDNAs. Human TLR4 cDNA (Accession No. NM_138554) was cloned into pcDNA 3.0 expression vector (Invitrogen). TLR4 transfected cells were also engineered to express human MD-2 co-receptor [MD-2 cDNA (Accession No. NM_015364) was cloned into the pEF-BOS vector] and were supplemented with 10 nM soluble CD14 (R&D Systems) in the media to optimize LPS responsiveness. […]

Human TLR4 = target: T2, Human TLR4 (Homo sapiens, UniProt O00206); experiment: HEK-293 human TLR4 NF-kappaB luciferase reporter assay (LPS); type: cell-based; conditions: ligand LPS, analyte NFkB-luciferase
T2 construct: stably and individually express human TLR4, TLR7 or TLR9 full-length ORF cDNAs; expressed in transfected cells; host or cells: HEK-293 (ATCC) with ELAM-1 NF-kappaB luciferase reporter
Protocol: as §1, §2

T2 sequence (O00206 24-839): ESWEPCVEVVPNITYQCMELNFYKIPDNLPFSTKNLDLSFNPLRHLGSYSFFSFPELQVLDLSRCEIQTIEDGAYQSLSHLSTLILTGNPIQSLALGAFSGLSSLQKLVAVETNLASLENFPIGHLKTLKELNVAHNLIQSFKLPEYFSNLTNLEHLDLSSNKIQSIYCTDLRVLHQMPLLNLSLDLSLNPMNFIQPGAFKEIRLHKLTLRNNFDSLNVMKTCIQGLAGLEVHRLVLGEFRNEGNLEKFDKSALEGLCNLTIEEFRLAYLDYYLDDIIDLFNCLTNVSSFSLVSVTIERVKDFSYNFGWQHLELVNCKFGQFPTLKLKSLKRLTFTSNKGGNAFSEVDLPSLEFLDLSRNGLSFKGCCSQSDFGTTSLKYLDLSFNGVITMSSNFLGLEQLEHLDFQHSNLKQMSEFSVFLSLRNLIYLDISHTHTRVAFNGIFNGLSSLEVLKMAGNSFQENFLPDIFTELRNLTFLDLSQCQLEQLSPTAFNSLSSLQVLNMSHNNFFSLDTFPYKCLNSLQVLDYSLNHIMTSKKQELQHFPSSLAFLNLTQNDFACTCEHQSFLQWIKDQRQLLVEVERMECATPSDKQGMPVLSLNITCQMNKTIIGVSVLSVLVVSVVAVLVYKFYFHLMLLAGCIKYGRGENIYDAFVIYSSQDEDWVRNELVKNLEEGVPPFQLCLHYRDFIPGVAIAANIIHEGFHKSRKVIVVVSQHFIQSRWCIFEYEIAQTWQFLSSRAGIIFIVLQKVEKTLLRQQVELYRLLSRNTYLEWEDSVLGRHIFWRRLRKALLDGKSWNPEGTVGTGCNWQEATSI
T2 sequence (Q9Y6Y9 19-160 partner): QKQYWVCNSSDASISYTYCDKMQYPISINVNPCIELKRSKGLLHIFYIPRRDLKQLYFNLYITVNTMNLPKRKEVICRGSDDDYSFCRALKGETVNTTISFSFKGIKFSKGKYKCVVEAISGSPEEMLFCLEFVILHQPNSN

**Q.** Which IC50 (TLR9) does the source give for `C[C@@H]1CN(c2ccc(C#N)c3ncccc23)C[C@H](C(=O)N[C@H]2CNC[C@H]2F)O1.Cl` [ER-899742, (2R,6R)-4-(8-cyanoquinolin-5-yl)-N-[(3S,4R)-4-fluoropyrrolidin-3-yl]-6-methylmorpholine-2-carboxamide hydrochloride] here?
**A.** The IC50 was greater than 10 µM.

**Q.** And the IC50 (Human TLR4)?
**A.** Its IC50 is greater than 10 µM.
